Experiment [1] deals with HCT-116 MTAP wild-type cells. The experiment can be described thus: Inhibitory activity on proliferation of HCT-116 MTAP wild-type cells (Cell-Titer Glo, 8 days). Format: cell-based. To be noted: Homo sapiens, HCT-116, 192 h, 8 days incubation. As to the method:
Test 2: Compound's inhibitory activity on proliferation of HCT-116 MTAP wild-type cells.
Materials and Cells: HCT-116 MTAP wild-type cells obtained from Kyinno Bio (China); RPMI-1640 medium, fetal bovine serum, and penicillin-streptomycin purchased from Thermo Fisher Scientific (America); 384-well plates from PerkinElmer (America); Cell-Titer Glo assay kit from Promega (America).
Cell Culture: HCT116 MTAP wild-type cells were cultured in RPMI 1640 medium containing 10% fetal bovine serum and 1% penicillin-streptomycin at 37° C., 5% CO2. Only cells in logarithmic growth phase were used for experiments.
Cell Proliferation Inhibition Assay: The compound's inhibitory activity on HCT-116 MTAP wild-type cells was assessed using the Cell-Titer Glo assay kit. Adjusting cell concentration, 40 μL was seeded into a 384-well plate and cultured overnight at 37° C., 5% CO2. Each well received 40 nL of the compound, achieving concentrations from 0 to 10,000 nM (starting concentration 10,000 nM, 3-fold dilution, 10 points), with 0.1% DMSO. The cell plate was incubated for 8 days at 37° C., 5% CO2. Cell-Titer Glo reagent (40 μL) was added to measure cell viability.

The test system of experiment [2] is HCT-116 MTAP(−/−) deficient cells. The experiment is described as follows: Inhibitory activity on proliferation of HCT-116 MTAP(−/−) deficient cells (Cell-Titer Glo, 8 days). The note with it: Homo sapiens, HCT-116, 192 h, 8 days incubation. Format: cell-based. The protocol: Test 1: Compound's inhibitory activity on proliferation of HCT-116 MTAP(−/−) deficient cells. P Materials and Cells: HCT-116 MTAP(−/−) deficient cells obtained from Kyinno Bio (China); RPMI-1640 medium, fetal bovine serum, and penicillin-streptomycin purchased from Thermo Fisher Scientific (America); 384-well plates from PerkinElmer (America); Cell-Titer Glo assay kit from Promega (America).
Cell Culture: HCT116 MTAP(−/−) deficient cells were cultured in RPMI 1640 medium containing 10% fetal bovine serum and 1% penicillin-streptomycin at 37° C., 5% CO2. Only cells in logarithmic growth phase were used for experiments.
Cell Proliferation Inhibition Assay: The compound's inhibitory activity on HCT-116 MTAP(−/−) deficient cells was assessed using the Cell-Titer Glo assay kit. Adjusting cell concentration, 40 μL was seeded into a 384-well plate and cultured overnight at 37° C., 5% CO2. Each well received 40 nL of the compound, achieving concentrations from 0 to 10,000 nM (starting concentration 10,000 nM, 3-fold dilution, 10 points), with 0.1% DMSO. The cell plate was incubated for 8 days at 37° C., 5% CO2. Cell-Titer Glo reagent (40 μL) was added to measure cell viability.

Broadly, the IC50 is the midpoint of a concentration-inhibition curve. A low value points to inhibition by little substance.

For the compound `N#Cc1ccc2c(c1)OC[C@@H]2N(C(=O)c1ccc2nc(N)c3cncn3c2c1)C1CC1` (single isomer, unassigned) [Example 91], the IC50 in experiment [1] is more than 20 µM; in experiment [2], 2.18 µM.
As for `[2H]c1ncn2c1c(N)nc1ccc(C(=O)N(C)[C@@H]3COc4cc(C(F)(F)F)ccc43)cc12` [Example 79, (S)-4-amino-N-methyl-N-(6-(trifluoromethyl)-2,3-dihydrobenzo-furan-3-yl)imidazo [1,5-a]quinoxaline-8-carboxamide-3-d], the half-inhibitory concentration (IC50) in experiment [1] turned out to be 1.3 µM; in experiment [2], 0.0056 µM.
With `Cc1ncc(-c2ccc3c(c2)OCC3N(C(=O)c2ccc3nc(N)c4cncn4c3c2)C2CC2)cn1` (stereo not drawn) [Example 72, 4-amino-N-cyclopropyl-N-(6-(2-methylpyrimidin-5-yl)-2,3-dihydrobenzofuran-3-yl)imidazo[1,5-a]quinoxaline-8-carboxamide], the IC50 in experiment [1] was more than 20 µM; in experiment [2], 0.117 µM.
As for `N#Cc1ccc2c(c1)OC[C@H]2N(C(=O)c1ccc2nc(N)c3cncn3c2c1)C1CC1` (single isomer, unassigned) [Example 92], the half-inhibitory concentration (IC50) came to 4.75 µM in experiment [1] and 0.0466 µM in experiment [2].
In the case of `CN(C(=O)c1ccc2nc(N)c3cncn3c2c1)[C@@H]1COc2cc(Cl)ccc21` [Example 70, (S)-4-amino-N-(6-chloro-2,3-dihydrobenzofuran-3-yl)-N-methylimidazo[1,5-a]quinoxaline-8-carboxamide], the IC50 in experiment [1] was determined as 3.89 µM; in experiment [2], 0.054 µM.
`CN(C(=O)c1ccc2nc(N)c3cncn3c2c1)C1CCOCc2cc(C(F)(F)F)ccc21` (stereo not drawn) [Example 44, 4-amino-N-methyl-N-(8-(trifluoromethyl)-1,3,4,5-tetrahydrobenzo[c]oxepin-5-yl) imidazo[1,5-a] quinoxaline-8-carboxamide]: the results for the 50% inhibitory concentration (IC50) in experiment [1] and in experiment [2] were more than 10 µM and 0.31 µM, respectively.
On to `Nc1nc2ccc(C(=O)N(C3CC3)[C@H]3COc4cc(C(F)(F)F)ccc43)cc2n2cncc12` (single isomer, unassigned) [Example 83], for which the IC50 in experiment [1] turned out to be 4.7 µM; in experiment [2], 2.64 µM.
On to `Nc1nc2ccc(C(=O)N(C3CC3)[C@H]3COc4cc(Br)ccc43)cc2n2cncc12` [Example 81, (R)-4-amino-N-(6-bromo-2,3-dihydrobenzofuran-3-yl)-N-cyclopropylimidazo[1,5-a]quinoxaline-8-carboxamide], for which the values for the half-inhibitory concentration (IC50) in experiment [1] and in experiment [2] were 2.36 µM and 1.79 µM, respectively.
For the compound `CN(C(=O)c1ccc2nc(N)c3cncn3c2c1)[C@@H]1COCc2ccc(C(F)(F)F)cc21` (single isomer, unassigned) [Example 94], the 50% inhibitory concentration (IC50) in experiment [1] was determined as 5.17 µM; in experiment [2], 0.0808 µM.
On to `Nc1nc2cnc(C(=O)N(C3CC3)[C@H]3COc4cc(C(F)(F)F)ccc43)cc2n2cncc12` (single isomer, unassigned) [Example 87], for which the IC50 worked out at 10.8 µM in experiment [1] and 9.03 µM in experiment [2].
For the compound `CN(C(=O)c1cc2c(cc1Cl)nc(N)c1cncn12)[C@@H]1COc2cc(C(F)(F)F)ccc21` [Example 27, (S)-4-amino-7-chloro-N-methyl-N-(6-(trifluoromethyl)-2,3-dihydrobenzofuran-3-yl)imidazo[1,5-a]quinoxaline-8-carboxamide], the values for the half-inhibitory concentration (IC50) in experiment [1] and in experiment [2] were 0.842 µM and 0.0044 µM, respectively.
On to `CN(C(=O)c1cc2c(cc1F)nc(N)c1cncn12)[C@H]1COc2cc(C(F)(F)F)ccc21` [Example 120, (R)-4-amino-7-fluoro-N-methyl-N-(6-(trifluoromethyl)-2,3-dihydrobenzofuran-3-yl)imidazo[1,5-a]quinoxaline-8-carboxamide], for which the concentration for half-maximal inhibition (IC50) in experiment [1] is more than 10 µM; in experiment [2], 0.9 µM.
On the same counts, the results for `Nc1nc2cnc(C(=O)N(C3CC3)[C@@H]3COc4cc(C(F)(F)F)ccc43)cc2n2cncc12` (single isomer, unassigned) [Example 88] are 1.85 µM and 0.0241 µM.
The like results for `CN(C(=O)c1ccc2nc(N)c3cncn3c2c1)[C@H]1COc2cc(S(F)(F)(F)(F)F)ccc21` (single isomer, unassigned) [Example 103] were, in that order, 6.26 µM and 0.931 µM.
In the case of `CN(C(=O)c1cc2c(cc1C#N)nc(N)c1cncn12)[C@@H]1COc2cc(C(F)(F)F)ccc21` [Example 14, (S)-4-amino-7-cyano-N-methyl-N-(6-(trifluoromethyl)-2,3-dihydrobenzofuran-3-yl)imidazo[1,5-a] quinoxaline-8-carboxamide], the IC50 is 1.28 µM in experiment [1] and 0.0147 µM in experiment [2].
Regarding `CN(C(=O)c1cc2c(cc1F)nc(N)c1cncn12)[C@@H]1COc2cc(S(C)(=O)=O)ccc21` [Example 38, (S)-4-amino-7-fluoro-N-methyl-N-(6-(methylsulfonyl)-2,3-dihydrobenzofuran-3-yl)imidazo[1,5-a] quinoxaline-8-carboxamide], the IC50 in experiment [1] worked out at 4.06 µM; in experiment [2], 0.03 µM.
For the compound `CN(C(=O)c1ccc2nc(N)c3cncn3c2c1)C1COCc2ccc(C(F)(F)F)cc21` (stereo not drawn) [Example 8, 4-amino-N-methyl-N-(6-(trifluoromethyl)isochroman-4-yl) imidazo[1,5-a] quinoxaline-8-carboxamide], the half-inhibitory concentration (IC50) in experiment [1] is 6.48 µM; in experiment [2], 0.106 µM.
Take `CN(C(=O)c1ccc2nc(N)c3cncn3c2c1)[C@H]1COc2nc(C(F)(F)F)ccc21` (single isomer, unassigned) [Example 89]: the IC50 in experiment [1] is more than 10 µM; in experiment [2] it was more than 3 µM.
On the same counts, the results for `Nc1nc2ccc(C(=O)N(C3CC3)C3COc4cc(Br)ccc43)cc2n2cncc12` (stereo not drawn) [Example 74, 4-amino-N-(6-bromo-2,3-dihydrobenzofuran-3-yl)-N-cyclopro-pylimidazo[1,5-a] quinoxaline-8-carboxamide] are 5.99 µM and 0.148 µM.
On the same counts, the results for `CN(C(=O)c1cc2c(cc1F)nc(N)c1cncn12)[C@@H]1COc2cc(-c3cnn(C)c3)ccc21` [Example 34, (S)-4-amino-7-fluoro-N-methyl-N-(6-(1-methyl-1H-pyrazol-4-yl)-2,3-dihydrobenzofuran-3-yl)imidazo[1,5-a] quinoxaline-8-carboxamide] are 6.57 µM and 0.0296 µM.
Regarding `CN(C(=O)c1ccc2nc(N)c3cncn3c2c1)C1CSc2cc(C(F)(F)F)ccc21` (stereo not drawn) [Example 43, 4-amino-N-methyl-N-(6-(trifluoromethyl)-2,3-dihydrobenzo[b]thiophen-3-yl)imidazo [1,5-a]quinoxaline-8-carboxamide], the 50% inhibitory concentration (IC50) in experiment [1] came out at 2.99 µM; in experiment [2], 0.0224 µM.
Consider `C[C@@H]1OC[C@@H](N(C)C(=O)c2ccc3nc(N)c4cncn4c3c2)c2ccc(C(F)(F)F)cc21` [Example 105, 4-amino-N-methyl-N-((1S,4S)-1-methyl-7-(trifluoromethyl)isoch-roman-4-yl)imidazo [1,5-a]quinoxaline-8-carboxamide], for which the concentration for half-maximal inhibition (IC50) in experiment [1] amounted to 2.19 µM; in experiment [2], 0.0661 µM.
Regarding `[2H]c1ncc2c(N)nc3ccc(C(=O)N(C)[C@@H]4COc5cc(C(F)(F)F)ccc54)cc3n12` [Example 78, (S)-4-amino-N-methyl-N-(6-(trifluoromethyl)-2,3-dihydrobenzofuran-3-yl)imidazo[1,5-a]quinoxaline-8-carboxamide-1-d], the IC50 in experiment [1] stood at 2.07 µM; in experiment [2], 0.0071 µM.
With `CN(C(=O)c1ccc2nc(N)c3cncn3c2c1)[C@@H]1CSc2cc(S(=O)(=O)C3CC3)ccc21` [Example 133, (S)-4-amino-N-(6-(cyclopropylsulfonyl)-2,3-dihydrobenzo[b]thiophen-3-yl)-N-methylimidazo[1,5-a] quinoxaline-8-carboxamide], the IC50 in experiment [1] was more than 10 µM; in experiment [2] it was 0.0714 µM.
Consider `Nc1nc2ccc(C(=O)N(C3CC3)[C@@H]3COc4cc(Br)ccc43)cc2n2cncc12` (single isomer, unassigned) [Example 82], for which the half-inhibitory concentration (IC50) in experiment [1] came out at 1.92 µM; in experiment [2], 0.0529 µM.
On the same counts, the results for `CN(C(=O)c1ccc2nc(N)c3cncn3c2c1)[C@@H]1COc2nc(C(F)(F)F)ccc21` (single isomer, unassigned) [Example 90] are more than 10 µM and 0.0364 µM.
For the compound `CN(C(=O)c1cc2c(cc1F)nc(N)c1cncn12)[C@@H]1CCOc2cc(-c3cnn(C(F)(F)F)c3)ccc21` [Example 113, (R)-4-amino-7-fluoro-N-methyl-N-(7-(1-(trifluoromethyl)-1H-pyrazol-4-yl)chroman-4-yl) imidazo[1,5-a] quinoxaline-8-carboxamide], the 50% inhibitory concentration (IC50) in experiment [1] is more than 10 µM; in experiment [2] it was 0.0881 µM.
